Reference: paper PMC6524651 (Cell chemical biology, 2018)

Legend:
SUMOylation = settings: read-out: IC50 in SUMOylation biochemical assays; among 780 assays; ref PubChem; cited from earlier work
RORγ = settings: read-out: IC50 in cellular assay of RORγ; among 780 assays; ref PubChem; cited from earlier work
[1] = molecular target: SUMO activating enzyme (SAE, SUMO E1) (Homo sapiens, UniProt Q9UBT2); test: AlphaScreen in vitro SUMOylation assay; type: biochemical
SUMO E1 WT = SUMO E1 WT (Homo sapiens, UniProt Q9UBT2); type: biochemical; settings: 0.25 μM E1 WT, 15 minutes at 37 °C
SUMO E1 C30S mutant = molecular target: T1, SUMO E1 C30S mutant (Homo sapiens, UniProt Q9UBT2, C30S); type: biochemical; settings: 0.25 μM E1 C30S, 15 minutes at 37 °C
T1 sequence (Q9UBT2 1-640 C30S): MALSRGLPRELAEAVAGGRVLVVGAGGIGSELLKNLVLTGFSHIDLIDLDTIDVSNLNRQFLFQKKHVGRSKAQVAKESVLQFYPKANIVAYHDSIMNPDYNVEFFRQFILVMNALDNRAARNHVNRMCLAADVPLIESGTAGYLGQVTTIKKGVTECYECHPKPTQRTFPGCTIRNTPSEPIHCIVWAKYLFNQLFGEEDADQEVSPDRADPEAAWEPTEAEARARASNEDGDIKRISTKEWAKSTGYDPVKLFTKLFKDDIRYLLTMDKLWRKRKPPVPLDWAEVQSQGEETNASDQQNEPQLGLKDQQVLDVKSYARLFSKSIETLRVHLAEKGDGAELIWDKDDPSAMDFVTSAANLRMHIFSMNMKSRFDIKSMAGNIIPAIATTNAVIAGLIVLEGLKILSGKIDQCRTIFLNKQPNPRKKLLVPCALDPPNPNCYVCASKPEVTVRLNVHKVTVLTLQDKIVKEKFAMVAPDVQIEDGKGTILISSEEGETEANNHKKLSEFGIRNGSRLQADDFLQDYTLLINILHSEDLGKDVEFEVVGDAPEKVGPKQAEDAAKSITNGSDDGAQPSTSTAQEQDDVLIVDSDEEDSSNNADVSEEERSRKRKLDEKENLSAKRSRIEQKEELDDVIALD
T1 sequence (Q9UBE0 1-346 partner): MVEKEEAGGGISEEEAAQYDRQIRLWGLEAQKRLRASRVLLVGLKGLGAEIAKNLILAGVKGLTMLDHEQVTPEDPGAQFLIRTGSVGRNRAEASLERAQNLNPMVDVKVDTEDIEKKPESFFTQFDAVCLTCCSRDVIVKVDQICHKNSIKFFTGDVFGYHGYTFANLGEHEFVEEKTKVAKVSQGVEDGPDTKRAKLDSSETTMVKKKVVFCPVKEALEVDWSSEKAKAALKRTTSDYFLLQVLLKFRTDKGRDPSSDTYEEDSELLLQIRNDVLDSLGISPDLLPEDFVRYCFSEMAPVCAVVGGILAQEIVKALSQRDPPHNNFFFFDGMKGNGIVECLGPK

[2] = test system: ubiquitylation (Ubc13-mediated poly-ubiquitylation); test: Ubc13-mediated poly-ubiquitylation assay; type: biochemical, human; settings: same condition as SUMOylation assay
SUMO E1 [3] = molecular target: T2, SUMO E1 (Homo sapiens, UniProt Q9UBT2); test: Dialysis of inhibited SUMO E1 followed by SUMOylation assay; type: biochemical; settings: no enzyme activity up to 8 hours of dialysis
[4] = molecular target: SAE2 (SUMO E1) Cys residues (Homo sapiens, UniProt Q9UBT2); test: LC-MS/MS analysis of pepsin digest of SUMO E1 inhibited by COH000; type: binding
[5] = test system: SUMOylation in HCT-116 cells; test: Western blot of SUMOylated proteins; type: cell-based, human; settings: 18 hours treatment
[6] = molecular target: T3, ubiquitin activating enzyme in HCT-116 cells (Homo sapiens, UniProt P22314); test: Western blot of ubiquitin•Ubc5 thioester formation in cells; type: cell-based; settings: HCT-116 cell lysates
T3 sequence (P22314 1-1058): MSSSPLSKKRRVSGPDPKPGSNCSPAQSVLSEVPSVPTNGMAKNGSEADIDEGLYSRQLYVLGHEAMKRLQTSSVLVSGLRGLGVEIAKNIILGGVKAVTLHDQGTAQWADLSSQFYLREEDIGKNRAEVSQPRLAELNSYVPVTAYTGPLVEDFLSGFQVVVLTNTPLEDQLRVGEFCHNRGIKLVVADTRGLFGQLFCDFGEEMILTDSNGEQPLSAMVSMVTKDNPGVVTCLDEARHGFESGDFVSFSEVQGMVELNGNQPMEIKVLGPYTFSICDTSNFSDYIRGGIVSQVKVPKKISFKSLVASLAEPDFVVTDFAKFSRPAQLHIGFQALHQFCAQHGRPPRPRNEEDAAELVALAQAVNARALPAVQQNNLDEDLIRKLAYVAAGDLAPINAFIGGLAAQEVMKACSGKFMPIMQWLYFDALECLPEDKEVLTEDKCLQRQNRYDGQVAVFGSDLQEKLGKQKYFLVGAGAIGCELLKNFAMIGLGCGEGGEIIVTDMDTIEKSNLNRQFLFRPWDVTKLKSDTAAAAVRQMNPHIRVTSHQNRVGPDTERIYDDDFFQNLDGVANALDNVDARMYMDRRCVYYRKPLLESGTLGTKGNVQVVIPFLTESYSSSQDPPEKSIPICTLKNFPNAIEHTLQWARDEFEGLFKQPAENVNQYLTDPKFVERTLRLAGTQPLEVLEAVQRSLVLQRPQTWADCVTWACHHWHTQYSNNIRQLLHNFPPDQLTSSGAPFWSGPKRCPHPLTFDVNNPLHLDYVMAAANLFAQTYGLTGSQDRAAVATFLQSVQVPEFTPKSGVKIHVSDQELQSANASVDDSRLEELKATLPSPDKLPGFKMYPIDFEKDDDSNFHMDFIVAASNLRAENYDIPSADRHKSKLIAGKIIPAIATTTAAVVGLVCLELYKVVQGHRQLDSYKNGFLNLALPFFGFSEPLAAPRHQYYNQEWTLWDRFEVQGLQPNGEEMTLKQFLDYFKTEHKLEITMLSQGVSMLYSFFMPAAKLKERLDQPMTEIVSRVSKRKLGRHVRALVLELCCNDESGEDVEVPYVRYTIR

[7] = molecular target: T4, Nedd8 activating enzyme in HCT-116 cells (Homo sapiens, UniProt Q8TBC4); test: Western blot of Nedd8•Ubc12 thioester formation in cells; type: cell-based; settings: HCT-116 cell lysates
T4 sequence (Q8TBC4 1-463): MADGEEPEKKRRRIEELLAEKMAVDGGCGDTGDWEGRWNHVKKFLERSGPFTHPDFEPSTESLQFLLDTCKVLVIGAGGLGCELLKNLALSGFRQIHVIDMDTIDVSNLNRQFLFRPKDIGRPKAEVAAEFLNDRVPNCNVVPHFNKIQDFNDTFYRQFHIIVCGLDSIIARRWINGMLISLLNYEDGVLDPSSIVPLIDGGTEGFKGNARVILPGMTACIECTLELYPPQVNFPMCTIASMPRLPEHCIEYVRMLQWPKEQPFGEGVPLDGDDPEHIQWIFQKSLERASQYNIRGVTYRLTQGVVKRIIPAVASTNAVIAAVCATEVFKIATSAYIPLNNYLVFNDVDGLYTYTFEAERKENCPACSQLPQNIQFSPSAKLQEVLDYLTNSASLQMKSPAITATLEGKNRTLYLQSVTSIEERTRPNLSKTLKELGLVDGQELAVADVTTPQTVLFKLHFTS
T4 sequence (Q13564 1-534 partner): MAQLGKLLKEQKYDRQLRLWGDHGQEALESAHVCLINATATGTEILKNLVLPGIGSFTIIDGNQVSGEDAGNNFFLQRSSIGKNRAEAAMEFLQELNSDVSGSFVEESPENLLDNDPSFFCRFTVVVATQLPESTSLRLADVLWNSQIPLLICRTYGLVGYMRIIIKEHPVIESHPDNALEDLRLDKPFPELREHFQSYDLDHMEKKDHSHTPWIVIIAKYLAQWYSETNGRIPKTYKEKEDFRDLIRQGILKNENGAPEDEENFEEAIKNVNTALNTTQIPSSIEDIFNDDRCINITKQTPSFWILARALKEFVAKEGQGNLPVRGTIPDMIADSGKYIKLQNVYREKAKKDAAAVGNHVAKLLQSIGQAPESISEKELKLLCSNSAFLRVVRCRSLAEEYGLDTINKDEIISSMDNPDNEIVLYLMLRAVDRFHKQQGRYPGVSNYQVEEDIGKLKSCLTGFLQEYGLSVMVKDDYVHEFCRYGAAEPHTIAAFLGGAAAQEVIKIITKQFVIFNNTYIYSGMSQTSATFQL

HCT-116 cells = test: Apoptosis by flow cytometry; type: cell-based, human; settings: 10 μM for 20 h
[8] = test system: miR-34b and c-Myc in lymphoma (Raji) and colorectal cancer (HCT116) cells; test: RT-qPCR and Western blot of miR-34b and c-Myc in cancer cell lines; type: cell-based, human
HCT-116 cell xenograft = test: HCT116 xenograft in plasma esterase-deficient SCID mice; type: in vivo, mouse (Es1e/SCID)
[9] = test system: primary colorectal tumor cells from PDX; test: Primary colorectal tumor cells from patient-derived xenograft tissues; type: cell-based, human
[10] = test system: cellular proteins of HCT116 cells; test: Target profiling by pull-down with alkyne-containing probe; type: cell-based, human; settings: preliminary profiling, 2 μM
SAE2 in HCT116 cells [11] = molecular target: T5, SAE2 in HCT116 cells (Homo sapiens, UniProt Q9UBT2); test: Cellular thermal shift assay; settings: 2 hours at 37°C, 42–56°C
SAE2 in HCT116 cells [12] = molecular target: T5, SAE2 in HCT116 cells; test: Pulse-chase assay of SAE2 degradation
SUMO E1 [13] = molecular target: T2, SUMO E1; test: Differential scanning fluorimetry of SUMO E1; settings: SUMO E1 fully inhibited by COH000
[14] = molecular target: SUMO E1 (SAE) adenylation step (Homo sapiens, UniProt Q9UBT2); test: ATP:PPi isotope exchange assay of the adenylation step
SUMO E1 in HCT-116 cells = SUMO E1 in HCT-116 cells (Homo sapiens, UniProt Q9UBT2); test: Western blot of Ubc9•SUMO thioester formation in cells; settings: HCT-116 cell lysates
SAE2 = SAE2 (Homo sapiens, UniProt Q9UBT2); test: Western blot of SAE2 level and modification in cells with or without MG132; settings: MG132 2 hours prior, 2 hours of COH000 treatment
[15] = 10 mg/kg s.c. peritumoral once a day, 14 days

Chain of SAE2 (SUMO E1) Cys residues (Q9UBT2 whole entry, one chain of several): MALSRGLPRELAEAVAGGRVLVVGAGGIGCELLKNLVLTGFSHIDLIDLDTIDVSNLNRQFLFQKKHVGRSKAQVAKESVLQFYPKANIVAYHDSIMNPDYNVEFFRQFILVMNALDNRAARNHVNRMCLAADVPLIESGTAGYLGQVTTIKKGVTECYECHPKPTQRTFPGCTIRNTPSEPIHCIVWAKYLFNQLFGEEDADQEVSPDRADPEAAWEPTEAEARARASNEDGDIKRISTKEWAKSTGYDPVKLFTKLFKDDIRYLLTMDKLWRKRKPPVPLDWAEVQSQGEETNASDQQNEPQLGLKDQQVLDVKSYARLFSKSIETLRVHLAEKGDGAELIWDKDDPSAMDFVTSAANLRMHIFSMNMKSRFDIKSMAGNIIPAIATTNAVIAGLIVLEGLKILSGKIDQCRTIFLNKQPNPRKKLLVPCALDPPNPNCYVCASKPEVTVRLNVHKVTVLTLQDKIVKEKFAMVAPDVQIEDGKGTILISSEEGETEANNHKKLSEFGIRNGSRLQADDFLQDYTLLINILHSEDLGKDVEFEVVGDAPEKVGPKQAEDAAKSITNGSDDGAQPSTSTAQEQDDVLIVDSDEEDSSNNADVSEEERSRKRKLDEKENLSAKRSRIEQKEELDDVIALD
Chain of SUMO E1 (SAE) adenylation step (Q9UBT2 whole entry, one chain of several): as above
Chain of SUMO activating enzyme (SAE, SUMO E1) (Q9UBT2 whole entry, one chain of several): as above
T5 sequence (Q9UBT2 whole entry, one chain of several): as above
T2 sequence (Q9UBT2 whole entry, one chain of several): as above
Chain of SUMO E1 WT (Q9UBT2 whole entry, one chain of several): as above
Chain of SUMO E1 in HCT-116 cells (Q9UBT2 whole entry, one chain of several): as above
Chain of SAE2 (Q9UBT2 whole entry, one chain of several): as above

C=CCC(Nc1ccccc1)C12C=CC(O1)C(C(=O)OC)=C2C(=O)OC (stereo not drawn) [CID 9549553]
IC50 (SUMOylation): < 7 µM
IC50 (RORγ): < 7 µM

COC(=O)C1=C(C(=O)OC)C2([C@@H](Cc3ccc(C)cc3)Nc3ccccc3)C=CC1O2 (stereo partly drawn) [COH000, dimethyl 1-((R)-1-(phenylamino)-2-(p-tolyl)ethyl)7-oxabicyclo[2.2.1]hepta-2,5-diene-2,3-dicarboxylate]
IC50 [1]: ~0.2 µM
selectivity for SUMOylation than ubiquitylation ([1]; SUMOylation vs Ubc13-mediated poly-ubiquitylation): over 500 fold
inhibition of Ubc9•SUMO thioester formation, WT enzyme (SUMO E1 WT): inhibited by COH000 in a dose-dependent manner
inhibition of Ubc9•SUMO thioester formation, C30S mutant (SUMO E1 C30S mutant): the C30S mutant was not
concentration up to which ubiquitylation was not inhibited [2]: > 100 µM
reversibility of SUMO E1 inhibition (SUMO E1 [3]): irreversible
modification of catalytic Cys173 of SAE2 ([4]; full inhibition by the compound): did not modify Cys173
labeling of SAE2 Cys30 by intact mass ([4]; full inhibition, >10 fold excess for > 1 h): 100%
SUMOylation in cells [5]: inhibited SUMOylation in a dose-dependent manner
ubiquitin•Ubc5 thioester formation in cells [6]: did not inhibit the homologous enzymes catalyzing ubiquitylation or NEDDylation
NEDD8•Ubc12 thioester formation in cells [7]: did not inhibit the homologous enzymes catalyzing ubiquitylation or NEDDylation
apoptosis (HCT-116 cells): consistently induced apoptosis
miR-34b expression ([8]; 2 days of treatment, RT-qPCR): increased the expression of miR-34b
c-Myc mRNA and protein levels ([8]; RT-qPCR and Western blot): reduced c-Myc mRNA and protein levels
SAE2 levels in tumor tissues (IHC) (HCT-116 cell xenograft; [15]): significantly reduced SAE2 levels in tumor tissues
apoptosis in tumor tissue (TUNEL) (HCT-116 cell xenograft; [15]): increased apoptosis
c-Myc protein level in tumor (IHC) (HCT-116 cell xenograft; [15]): The c-Myc protein level was reduced
tumor growth (HCT-116 cell xenograft; [15]): significantly inhibited tumor growth
miR-34b level in tumor tissues (HCT-116 cell xenograft; COH000-treated vs vehicle-treated mice): miR-34b level is higher in tumor tissues
cancer cell viability in primary colorectal PDX samples [9]: decreased cancer cell viability
apoptosis in primary colorectal PDX samples ([9]; 48 h treatment): induced apoptosis
c-Myc level, samples from Patient #2 and #3 ([9]; higher c-Myc levels): showed reduced c-Myc levels
c-Myc level, sample from Patient #1 ([9]; lowest c-Myc level among the three samples): did not show much further reduction of c-Myc level
other targets in cells (pull-down with alkyne-containing analog probe) [10]: does not have a large number of other targets
thermal stability of SAE2 in cells (CETSA) (SAE2 in HCT116 cells [11]): increased the thermal stability of the enzyme in a dose dependent manner
degradation of SAE2 (pulse-chase) (SAE2 in HCT116 cells [12]): increased the degradation of SAE2
thermal denaturation of SUMO E1, inhibitor bound vs unbound (SUMO E1 [13]): higher melting temperature
effect on SUMO adenylation (32PPi:ATP isotope exchange) ([14]; COH000 0–2 μM): inhibited SUMO adenylation
effect of increasing ATP or SUMO1 on the inhibition of adenylation ([14]; increasing concentrations of ATP or SUMO1): not overcome with increasing concentrations of ATP or SUMO1
SUMO•Ubc9 thioester formation in cells (SUMO E1 in HCT-116 cells): inhibited only SUMO•Ubc9 thioester formation in a dose-dependent manner
ubiquitylation of SAE2 in cells (SAE2): increased ubiquitylation of SAE2
